Where two headings read alike, the source gives them in different places.
Columns and labels:
[1] = Granule elution apparatus: release of active ingredient from CR granules into about 4000 ml water in 24 h; type: physicochemical; conditions: for active ingredient detected in the collected liquid: Example 3 granules (PVA+PVP coating), 30 g of granules, 3980 g of water in 24 hours; for Release rate in 24 h at 40° C., 4000 ml: coating percentage 4%
Description: The plant serves to determine the delayed release of active ingredients or salts from controlled release (CR) formulations. A frit on which the granules to be tested are placed is located in a cylindrical vessel at the lower edge. Underneath the frit there is an S-shaped drain which causes liquid to drain from the cylinder only when it is 80% full. Water (if appropriate together with wetter) is pumped through the CR formulations in a cylindrical feed container (approx. volume 100 ml) by means of a hose pump in such a way that the feed material is surrounded completely by water. The percolating water is collected in receiving vessels. An automatic switch causes the receiving vessels to be changed in order to determine the release of active ingredients over time. […] Unless elution temperatures are specified, a bath temperature of 30° C. was set.
The elution plant operates 24 hours a day in conjunction with the program control. One elution takes 24 hours, and during this time approx. 4000 ml of fluid are pumped through the feed material and collected in receiving vessels. The active ingredient content in the eluate is determined by means of HPLC or GC. Whether release is uniform can be checked with reference to the feed material. The cumulative value provides a measure for assessing granule permeability.
The release rate of the active ingredients was determined in the above-described elution apparatus. To this end, 30 g of the carrier granules were weighed into a trapped container equipped with a frit. In 24 hours, an amount of 3980 g of water was pumped through the container and collected. 124 mg of fenpropimorph and 19 mg of epoxiconazole were detected in the collected liquid.

[2] = type: in vivo, winter wheat; conditions: for epoxiconazole detected per kg of biomass: winter wheat, in vivo
Description: This product was applied together with cereal seed (winter wheat). On average, approx. 3 fungicidal active ingredient pellets were deposited subterraneously per seed kernel. Epoxiconazole was detected in the growing cereal plants two and six months after application. Two months after sowing, 0.038 mg were detected per kg of biomass, and six months after application 0.022 mg were still detected per kg of biomass.

Erysiphe-graminis = assay: Field experiments on spring wheat Star: disease level Erysiphe graminis; type: in vivo; conditions: soil application in CR granules combined with strobilurin, Table 12 series
Excerpt: Due to the rapid release of active ingredient, the long-term action of this sample was insufficient, so that only a minor effect was discernible in comparison with the untreated sample.
The carriers employed were urea and Rasenfloranid granules.

Fc1ccc([C@]2(Cn3cncn3)O[C@H]2c2ccccc2Cl)cc1 (racemic) [Comp. 6, (2RS,3SR)-1-[3-(2-chlorophenyl)-2,3-epoxy-2-(4-fluorophenyl)-propyl]-1H-1,2,4-triazole]
active ingredient detected in the collected liquid [1]: 19 mg
Release rate in 24 h at 40° C., 4000 ml ([1]; filler (starch C-Pur) 0%): 2.70%
Release rate in 24 h at 40° C., 4000 ml ([1]; filler (starch C-Pur) 10%): 3.30%
Release rate in 24 h at 40° C., 4000 ml ([1]; filler (starch C-Pur) 20%): 7.15%
controlled release of the active ingredient in the soil, duration ([2]; PVA+PVP coating, Example 3): at least 6 months
epoxiconazole detected per kg of biomass ([2]; 2 months): 0.038 mg per kg of biomass
epoxiconazole detected per kg of biomass ([2]; 6 months): 0.022 mg per kg of biomass

CC(=O)Oc1ccccc1C(=O)O [Comp. 7, acetylsalicylic acid]
activity-enhancing effect in combination (words) (Erysiphe-graminis; listed as Compound 7): same activity-enhancing effects as Bion®

CC(Cc1ccc(C(C)(C)C)cc1)CN1C[C@@H](C)O[C@@H](C)C1 (mixture of isomers) [Comp. 1, (±)-cis-4-[3-(4-tert-butylphenyl)-2-methylpropyl]-2,6-dimethyl-morpoline]
active ingredient detected in the collected liquid [1]: 124 mg

CC(=O)Oc1ccccc1C(=O)O [acetylsalicylic acid]
activity-enhancing effect in combination (words) (Erysiphe-graminis): activity-enhancing effects
